For two compounds, IC50 and inhibition results are on record in US20170190705A1, “Compositions and Methods for Inhibiting BMP” (THE BRIGHAM AND WOMAN'S HOSPITAL, INC., priority 2014, published 2017).

The term IC50 denotes the concentration at which inhibition is half-maximal.

Experiment [1] has as its target T1, caALK1 (Homo sapiens, UniProt P37023, Q201D).
T1 construct: expressed in transfected cells; host or cells: C2C12 BRE-Luc cells infected with adenovirus (MOI 100)
The experiment can be described thus: Luciferase reporter assay constitutively active ALK1. Conditions: read-out: Cell Based Assay caALK1 IC50. As to the method: The cells were incubated for 1 h (37° C. and 10% CO2) and allowed to settle and attach. Compounds of interest or DMSO were diluted in DMEM and added at final compound concentrations of 1 nM to 10 μM. Cells were then incubated for 30 min. Adenovirus expressing constitutively active BMP and TGF-β type I receptors (Ad.caALK1-5), generously provided by Dr. Akiko Hata (University of to California at San Francisco), were added to achieve a multiplicity of infection (MOI) of 100. Plates were incubated overnight at 37° C. Cell viability was assayed with an MIT (3-(4,5-dimethylthiazol-2-yl)-2,5-diphenyl tetrazolium bromide) colorimetric assay (Promega) per the manufacturer's instructions. Media was discarded, and firefly luciferase activity was measured (Promega) according to manufacturer's protocol. Light output was measured using a Spectramax L luminometer (Molecular Devices) with an integration time of one second per well. Data was normalized to 100% of incremental BRE-Luc activity due to adenoviruses specifying caALK1, 2, or 3, or the incremental CAGA-Luc activity due to adenoviruses specifying caALK4 or 5.
On the technique in general: In a reporter assay the amount or activity of a reporter protein is the signal.

Experiment [2] addresses ALK6 (Homo sapiens, UniProt O00238). The experiment is described as follows: Kinome profiling ALK6. The class given is biochemical. Conditions: Table 4, read-out: Inhibitory Activity ALK6. As to the method:
(§1) . The kinome-wide selectivity was determined following the methods previously reported by Mohedas et al., ACS Chem Biol 2013, 8, 1291-1302 and Sanvitale et al., PLoS One 2013, 8, e62721.

The target in experiment [3] is ALK2 (Homo sapiens, UniProt Q04771). The experiment is described as follows: Kinome profiling ALK2. Type of experiment: biochemical. Conditions: Table 4, read-out: Inhibitory Activity ALK2. As to the method:
as §1

For experiment [4], the target named is RIPK2 (Homo sapiens, UniProt O43353). The experiment can be described thus: Kinome profiling RIPK2. Type of experiment: biochemical. Conditions: Table 4, read-out: Inhibitory Activity RIPK2. As to the method:
as §1

Chain of RIPK2 (O43353 whole entry): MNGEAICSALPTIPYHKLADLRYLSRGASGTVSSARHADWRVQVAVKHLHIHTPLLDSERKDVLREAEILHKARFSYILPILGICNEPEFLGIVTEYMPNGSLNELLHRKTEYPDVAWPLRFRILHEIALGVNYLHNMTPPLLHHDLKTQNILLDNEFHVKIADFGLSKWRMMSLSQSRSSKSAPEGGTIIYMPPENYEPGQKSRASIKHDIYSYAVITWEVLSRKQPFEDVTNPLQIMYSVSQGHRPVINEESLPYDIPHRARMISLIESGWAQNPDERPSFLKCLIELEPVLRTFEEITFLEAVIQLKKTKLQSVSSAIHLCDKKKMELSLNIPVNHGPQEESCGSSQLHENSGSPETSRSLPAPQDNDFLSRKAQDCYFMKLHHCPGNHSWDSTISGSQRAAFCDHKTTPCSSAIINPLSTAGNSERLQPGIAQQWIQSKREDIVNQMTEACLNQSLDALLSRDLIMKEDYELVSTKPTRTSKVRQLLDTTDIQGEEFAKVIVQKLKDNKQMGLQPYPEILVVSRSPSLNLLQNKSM
Chain of ALK6 (O00238 14-502): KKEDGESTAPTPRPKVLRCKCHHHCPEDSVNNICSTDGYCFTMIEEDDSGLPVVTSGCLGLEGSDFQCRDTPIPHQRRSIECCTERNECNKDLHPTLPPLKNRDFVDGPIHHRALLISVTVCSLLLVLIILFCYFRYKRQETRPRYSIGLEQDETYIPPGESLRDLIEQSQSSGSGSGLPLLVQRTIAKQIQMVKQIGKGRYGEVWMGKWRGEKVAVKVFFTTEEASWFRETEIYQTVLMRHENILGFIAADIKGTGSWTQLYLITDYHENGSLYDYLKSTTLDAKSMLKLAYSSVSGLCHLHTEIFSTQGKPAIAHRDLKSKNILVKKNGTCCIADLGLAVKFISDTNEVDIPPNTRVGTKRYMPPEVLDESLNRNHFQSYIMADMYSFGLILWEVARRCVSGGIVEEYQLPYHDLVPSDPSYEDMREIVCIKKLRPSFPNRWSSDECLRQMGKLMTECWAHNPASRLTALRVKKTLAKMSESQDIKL
Chain of ALK2 (Q04771 21-509): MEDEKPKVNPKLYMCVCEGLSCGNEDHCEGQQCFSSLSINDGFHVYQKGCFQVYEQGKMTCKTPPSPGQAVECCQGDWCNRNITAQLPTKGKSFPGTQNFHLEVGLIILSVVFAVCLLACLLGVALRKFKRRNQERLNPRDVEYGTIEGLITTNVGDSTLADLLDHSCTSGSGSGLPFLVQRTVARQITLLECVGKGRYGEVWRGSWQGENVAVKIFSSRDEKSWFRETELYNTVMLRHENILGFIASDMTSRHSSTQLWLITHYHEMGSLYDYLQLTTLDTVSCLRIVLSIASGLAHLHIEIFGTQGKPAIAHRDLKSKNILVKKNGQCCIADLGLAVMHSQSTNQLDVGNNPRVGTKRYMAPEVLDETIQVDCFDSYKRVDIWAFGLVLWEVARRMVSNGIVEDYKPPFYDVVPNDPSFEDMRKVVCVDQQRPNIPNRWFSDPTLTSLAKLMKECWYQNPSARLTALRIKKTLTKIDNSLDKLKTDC
T1 sequence (P37023 22-503 Q201D): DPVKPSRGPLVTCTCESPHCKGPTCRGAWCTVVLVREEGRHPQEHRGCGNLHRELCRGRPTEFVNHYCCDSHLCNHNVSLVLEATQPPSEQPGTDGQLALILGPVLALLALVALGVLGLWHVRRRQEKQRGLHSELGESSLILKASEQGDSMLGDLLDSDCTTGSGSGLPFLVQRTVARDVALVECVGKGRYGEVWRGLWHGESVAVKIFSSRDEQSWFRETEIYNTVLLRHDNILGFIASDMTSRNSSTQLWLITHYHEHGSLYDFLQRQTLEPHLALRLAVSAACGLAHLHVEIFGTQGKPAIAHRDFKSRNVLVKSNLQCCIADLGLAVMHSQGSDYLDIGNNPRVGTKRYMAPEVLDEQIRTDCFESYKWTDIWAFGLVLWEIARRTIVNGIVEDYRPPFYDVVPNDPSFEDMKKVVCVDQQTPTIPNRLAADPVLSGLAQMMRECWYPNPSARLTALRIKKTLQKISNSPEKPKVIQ

As to `COc1cc(-c2cc(-c3ccc(N4CCNCC4)cc3)cnc2N)cc(OC)c1OC` [Compound 15, 5-(4-(piperazin-1-yl)phenyl)-3-(3,4,5-trimethoxyphenyl)pyridin-2-amine], the IC50 in experiment [1] came to 0.024 µM.
Take `COc1cc(-c2cc(-c3ccc(N4CCNCC4)cc3)cnc2C)cc(OC)c1OC` [Compound 10, 1-(4-(6-methyl-5-(3,4,5-trimethoxyphenyl)pyridin-3-yl)phenyl)piperazine]: the inhibition at 0.1 µM amounted to 11% in experiment [2] (100 nM), 67% in experiment [3] (100 nM) and 71% in experiment [4] (100 nM). Besides, the inhibition at 1 µM in experiment [2] (1 μM) is 60%; in experiment [3] (1 μM), 99%; in experiment [4] (1 μM), 97%.
